The record followed here is patent US8846768B2, “Use of compounds isolated from Euphorbia neriifolia for treating cancer and/or thrombocytopenia” (Mackay Memorial Hospital, priority 2012, dated 2014).

SMILES strings stand for the structures.

Data set [1] deals with CD61 and CD235a in HEL cells. In words: Flow cytometric analysis of CD61 and CD235a expression. To be noted: 5 μM. The format is cell-based, human. The text has this:
The induction of megakaryocytic differentiation may also be confirmed by the measurement of the differentiation markers CD61 and CD235a expressed on the erythrocyte membrane during the differentiation stage.

Data set [2] has as its system HEL cells. In words: Cell cycle analysis by flow cytometry. To be noted: FIG. 8. The format is cell-based, human. As for the experimental part:
Cultured cells with or without pre-treatment of the compounds of this invention (i.e., the compound of formula (I) or (II)) were harvested from the cultured media and fixed by incuating with 75% iced cold ethanol at 4° C. for at least over night. The fixed cells were then warmed up to room temperature and treated with RNAase A for about 30 min. Precipitated cells were collected by centrifugation and re-suspended in a buffer solution containing propidium iodine (20 μg/ml) before being subject to flow cytometry analysis, where cell numbers at respective cell cycles were determined.

Data set [3] has as its system stat3 and phosphorylated stat3. Description: Immunoblot of stat3 and phosphorylated stat3 in K562 cells. Type of data set: cell-based, human. To be noted: compared with control, FIG. 9. As for the experimental part: (§1) Cultured cells were lysed by use of well known lysing buffer, and total amount of proteins were determined by Bradford method. The extracted raw proteins (about 50-100 μg) were loaded to […] sodium dodecyl sulfate polyacrylamide gel, and proteins therein were separated by electrophoresis. The separated proteins were then transferred to nitrocellulose membrane and non-specific binding was removed by TBST buffer (0.8% NaCl, 0.02% KCl, 25 mM Tris-HCl/pH 8.0 and 0.1% Tween-20) containing 4% skim milk. Antibodies including p-Jak2, Jak2, p-stat3-2, stat3, p-stat5, stat5, and GAPDH (purchased from Transduction Laboratories, Lexington, Ky., USA), were respectively dissolved in TBST buffer containing 2% skim milk and incubated with the separated protein bands at 4° C. for at least over night; followed by incubation with horseradish conjugated secondary antibodies at room temperature for about 30 min, and then detected by ECL chemiluminesance detection kit (Amersham Pharmacia Biotech, US).
(§2) The induction of K562 cells or HEL cells to form megakaryocytes was further investigated by measuring the expressed level of its regulatory proteins such as, stat3 and phosphorylated stat3.

Data set [4] has as its system stat3 and phosphorylated stat3. Description: Immunoblot of stat3 and phosphorylated stat3 in HEL cells. Type of data set: cell-based, human. The following applies: compared with control, FIG. 9. As for the experimental part:
as §1, §2

The subject of data set [5] is HEL cells. Description: Megakaryocyte formation, morphology by Liu's staining, HEL. The format is cell-based, human. The following applies: 10 μM, 5 days, FIG. 7. As for the experimental part: (§3) Cells were transferred to a glass coverslide and covered with solution A (0.5 g of methylene blue and 1.7 g of Eosin yellow dissolved in 1,000 ml of ethanol). After 45 seconds, solution B (1.3 g of azure, 1.4 g of methylene blue, 23.38 g of Na2HPO4, 6.5 g of KH2PO4, dissolved in 1,000 ml of distilled water) was added in the proportion of 2 parts of B to 1 part of A. Mixed the solutions well by blowing the surface. The slide was left standing for 90 seconds and then washed off the staining solution rapidly by running water. The morphology of stained cells was then examined by observation under microscope.
(§4) Megarkaryocytopoiesis is a process by which bone marrow progenitor cells develop into mature megakaryocytes, which in turn produce platelets required for normal hemostasis.

The subject of a further data set is K562 cells. In words: Megakaryocyte formation, morphology by Liu's staining, K562. The format is cell-based, human. To be noted: 10 μM, 9 days, FIG. 6. As for the experimental part: as §3, §4
The test system of data set [6] is human erythroleukemia (HEL) cells. In words: In vitro growth inhibition of HEL cells. Type of data set: cell-based. As for the experimental part:
(§5) Cell lines used in the present disclosure include human chronic is myelogenous leukemia (CML) cell line K562, erythroleukemia HEL cells, human pancreatic carcinoma epithelial-like cell line PANC-1, human esophageal squamous cell carcinoma line 81T/VGH, human esophageal adenocarcinoma line BE-3 and human esophageal adenocarcinoma cell line SKGT4. Each cell lines were cultured and maintained in Dulbecco's modified Eagle media (DMEM) supplemented with 10% fetal calf serum, 100 IU/ml penicillin, 100 μg/ml streptomycin, and 2 mM glutamine in 5% CO2 at 37° C.
(§6) The absorbance of the solution at 570 nm was measured by spectrophotometer.

In data set [7] the test system is HEL cells. Description: STAT3 RNAi assay, megakaryocytic differentiation after Stat3 knockdown. Type of data set: cell-based, human. The following applies: Stat3 small interference RNA, FIG. 10. The text has this:
The murine stat3 target sequence from positions 134 to 158 (5′-TGGCCCAATGGAATCAGCTACAGCA-3′ (SEQ ID NO: 1)) was selected for the preparation of stat3 siRNA (5′-UGGCCCAAUGGAAUCAGCUACAGCA-3′ (SEQ ID NO: 2)). Scrambled RNAs were employed as a negative control and were synthesized by PCR-derived siRNA expression cassettes according to the manufacturer's instructions and were then cloned into pSEC™ hygro plasmid (Ambion).
[…] HEL cells were transfected with the plasmids (i.e., plasmids containing the nucleic acid for the stat3 siRNA or scramble RNAs) described above with the aid of the lipofectamine 2000 (Invitrogen, Carisbad, Calif. USA). Specifically, 5 μg pSEC™ hygro plasmid contained murine stat3 siNAs and 9 μl lipofectamine 2000 were allowed to form complexes in a period of 25 min at room temperature in antibiotic-free DMEM medium. The complexes were then added to HEL cells maintained and cultured in 6-well dishes and further incubated for another 24 hrs. For the selection of cells with high expression rate of siRNA, stable clones of murine stat3 siRNA expressed cells and negative control siRNA (i.e., scrambled RNA) were selected by use of 500 μg/ml hygromycin contained medium, and the selected clones were maintained in 250 ? μg/ml hygromycin contained medium. […]

In data set [8] the test system is human chronic myelogenous leukemia (CML) K562 cells. In words: MTT cell viability, growth inhibition on chronic myelogenous leukemia cells. Type of data set: cell-based. The following applies: for Inhibition (%): 10 μM, K562 cells; for ex vivo growth of CML cells suppressed: about 10 μM, time not stated. As for the experimental part:
as §5, §6
Effects of the compounds of formula (I) or (II) of this disclosure, particularly, EN 22, EN 26, and EN 28, on K562 cells were assessed by cell viability analysis in accordance with procedures described above.

The next data set has as its system normal bone marrow cells. Description: Induction and proliferation of megakaryocytes from normal bone marrow cells. Type of data set: cell-based. To be noted: 1.25 μM, FIG. 12.
For data set [9], the system named is human esophageal squamous 81T/VGH xenograft tumor. In words: Tumor size in animals grafted with 81T/VGH cancer cells. The format is in vivo, Athymic BALB/c-nu nude mice. The following applies: FIG. 1. As for the experimental part: For inoculated tumor model, 1×10^5 81T/VGH cells were injected subcutaneously to lab animals to generate s.c. tumors (5×10^5 cells per injection) on day 1. The needle hole was sealed with an electric coagulator (Aaron, Petersburg, Fla., USA) immediately after the withdrawal of the needle to avoid leakage of the injected substance. The incision was subsequently sutured.
Results are depicted in FIGS. 1 to 3, respectively.

Data set [10] in a line: White blood cell counts, liver or kidney function of treated animals. The following applies: EN 22 25 or 50 mg/Kg, FIG. 3.
Experimental: (§7) Athymic BALB/c-nu nude mice (4 weeks old) were obtained from the National Laboratory Animal Center (Taipei, Taiwan) and were kept in a pathogen-free facility with ad libitum access to water and laboratory chow. A solution of 81T/VGH cells was injected into the subcutaneous tissue to establish a xenograft tumor.
After treatment, mice were sacrificed and their white blood cells (WBC) counts were measured. Tumor burdens were determined by the total volume of all the tumor nodules with diameter greater than 3 mm.
(§8) Mice were inoculated with esophageal squamous tumor cells in accordance with the procedures described above. For in vivo therapy, animals were given 2 mg/Kg cisplatin intraperitoneally, in the presence or absence of 20 mg/Kg EN 22, which was given orally, for a period of at least 4 weeks. Tumor size, body weight, white blood cell count, and liver function of each animal were then measured respectively at the indicated time.
Data set [11] is described as follows: Body weight of tumor-bearing treated animals. The following applies: EN 22 alone, FIG. 2.
Experimental: as §7
Tumor sizes were measured using calipers, and tumor volume was calculated using the formula: volume=width^2×length×0.52.
as §8
The subject of data set [12] is human esophageal squamous 81T/VGH cells. In words: MTT cell viability, growth inhibition on esophageal squamous cells. To be noted: for Inhibition (%): 81T/VGH cells; for ex vivo growth of esophageal cancerous cells inhibited: time not stated. The format is cell-based. As for the experimental part: as §5, §6
Effects of the compounds of formula (I) of this disclosure, particularly, EN 22, EN 24, and EN 25, on 81T/VGH cells were assessed by cell viability analysis in accordance with procedures described above.

Consider `CC=C(C)C(=O)OC1C(C)=CC23OC2(CC(C)C3OC(C)=O)C(=O)C(C)C(OC(C)=O)C2C(C1OC)C2(C)C` (centres unmarked) [EN 28, 3,12-O-Diacetyl-7-O-angeloyl-8-methoxyingol], for which the “effect of Stat3 knockdown on CD61 and CD235a changes” value in data set [1] (HEL cells with siStat3, FIG. 11) is recorded as “not antagonized”. In addition, the CD61 expression entry in [1] (HEL cells, FIG. 11) is on record as “up-regulation”. Besides, in data set [1] (HEL cells, FIG. 11), the CD235a expression result was “down-regulation”. Also, in the data set on HEL cells [2], the cell cycle analysis result is “capable of inducing the generation of new population of cells”. The “level of phosphorylated stat-3” value in [3] and in [4] was “increased” in each case. In addition, the “level of stat3” value in data set [3] and in [4] was “increased” each time. The “morphology change, differentiation into megakaryocytes” value in the data set on HEL cells [5] is “induces the differentiation of HEL cells into megakaryocytes”. Moreover, the “morphology change, formation of megakaryocytes” value with K562 cells was “cells started to fuse and form megakaryocytes”. In addition, the “in vitro growth of HEL cells inhibited” value in data set [6] (5 μM) was “about 55%”; in data set [6] (10 μM), “about 60%”; in [6] (about 2.5 μM), “about 40%”. Moreover, the “induction of megakaryocytic differentiation after knockdown of Stat3” value with HEL cells [7] is “partially reversed”. The “Inhibition (%)” value in data set [8] (48 hrs) was found to be 44.85%. Also, in data set [8], the “ex vivo growth of CML cells suppressed” value was “about 50%”. Besides, the “proliferation and differentiation into megakaryocytes” value in the data set on normal bone marrow cells is “capable of inducing the proliferation and subsequently, the differentiation of the proliferated normal bone marrow cells into megakaryocytes”.

For the compound `CC=C(C)C(=O)OC1C(OC(C)=O)C(C)=CC23OC2(CC(C)C3OC(C)=O)C(=O)C(C)C(OC(C)=O)C2C1C2(C)C` (centres unmarked) [EN 26, 3,7,12-O-Triacetyl-8-O-tigioylingol], the “Inhibition (%)” value stood at 12.74% in data set [8] (24 hrs), 30.38% in data set [8] (48 hrs) and 42.35% in data set [8] (72 hrs). Moreover, in [8], the “ex vivo growth of CML cells suppressed” value is reported as “about 40%”.

Regarding `CC1C(O)CCC2C1(C)CCC1C2(C)CCC2(C)C3CC(C)(C)CCC3(C)CCC12C` (stereo not drawn) [EN 22, 3β-Friedelinol], the “tumor size (growth of tumor)” value in data set [9] (EN 22 orally, 20 and 50 mg/Kg) is “able to suppress the growth of the tumor in a dose dependent manner”. The “white blood cell (WBC) counts” value in data set [10] is on record as “did not affect the number of WBC”. In addition, the body weight loss entry in data set [11] is on record as “free from the “weight lost” problem”. For the same compound, the “Inhibition (%)” value is on record as 51.98% in data set [12] (1 μM, 24 hrs); 41.42% in data set [12] (1 μM, 48 hrs); 58.03% in data set [12] (10 μM, 24 hrs); 58.61% in data set [12] (10 μM, 48 hrs); 39.32% in data set [8] (48 hrs); 45.38% in data set [8] (72 hrs). Also, the entries for the “ex vivo growth of esophageal cancerous cells inhibited” value in data set [12] (about 1 μM) and in data set [12] (about 10 μM) were “about 50%” and “about 60%”, respectively. Moreover, in data set [8], the “ex vivo growth of CML cells suppressed” value is on record as “about 45%”.

As for `CC1C(O)CCC2C1(C)CCC1C2(C)CCC2(C)C3CC(C)(C)CCC3(C)CCC12C` (stereo not drawn) [EN 25, 3α-Friedelinol], the “Inhibition (%)” value in data set [12] (1 μM, 24 hrs) was found to be 49.45%; in [12] (1 μM, 48 hrs), 39.99%; in [12] (10 μM, 24 hrs), 61.74%; in data set [12] (10 μM, 48 hrs) it was 62.55%. For the same compound, the figures for the “ex vivo growth of esophageal cancerous cells inhibited” value in [12] (about 1 μM) and in data set [12] (about 10 μM) were “about 50%” and “about 60%”, respectively.

In the case of `N.N.[Cl][Pt][Cl]` [cisplatin, reference compound], the “tumor size (growth of tumor)” value in [9] (cisplatin 2 mg/Kg intraperitoneally) is on record as “capable of suppressing the growth of tumor during the entire treatment period”.

For the compound `CC1(C)CC[C@]2(C)CC=C3[C@]4(C)CC[C@H]5C(C)(C)[C@@H](O)CC[C@]5(C)[C@H]4CC[C@@]3(C)[C@@H]2C1` [EN 24, 3β-Taraxerol], the “Inhibition (%)” value stood at 49.15% in data set [12] (1 μM, 24 hrs); 43.47% in data set [12] (1 μM, 48 hrs); 63.99% in data set [12] (10 μM, 24 hrs); 57.10% in data set [12] (10 μM, 48 hrs).
